Series [1] concerns HeLa cells. As to the kind of experiment: Cytotoxic activity of NK92 against HeLa cells with GSK3 inhibitor. In kind it is cell-based, Human. Conditions: data not shown.
Series [2] concerns NKG2A genomic DNA sequence. As to the kind of experiment: T7E1 DNA cleavage assay / % INDELs after CRISPR/Cpf1-NLS delivery (NK and NK-92 cells). Type of series: cell-based, Human. Conditions: gene target NKG2A, CRISPR/Cpf1 1.33 μM, crRNA 2 μM, peptide 6 μM, 1 min in PBS, n=2. An excerpt: The T7 endonuclease I (T7E1) can be used to detect on-target CRISPR/Cas genome editing events in cultured cells. As an overview, genomic DNA from target cells is amplified by PCR. The PCR products are then denatured and reannealed to allow heteroduplex formation between wild-type DNA and CRISPR/Cas-mutated DNA. T7E1, which recognizes and cleaves mismatched DNA, is used to digest the heteroduplexes. The resulting cleaved and full-length PCR products are visualized by gel electrophoresis.
The T7E1 assay was performed with the Edit-R™ Synthetic crRNA Positive Controls (Dharmacon #U-007000-05) and the T7 Endonuclease I (NEB, Cat #M0302S). After the delivery of the CRISPR/Cas complex, cells were lysed in 100 μL of Phusion™ High-Fidelity DNA polymerase (NEB #M0530S) laboratory with additives. The cells were incubated for 15-30 minutes at 56° C., followed by deactivation for 5 minutes at 96° C. The plate was briefly centrifuged to collect the liquid at bottom of the wells. 50-μL PCR samples were set up for each sample to be analyzed. The PCR samples were heated to 95° C. for 10 minutes and then slowly (>15 minutes) cooled to room temperature. PCR product (-5 μL) was then separated on an agarose gel (2%) to confirm amplification. 15 μL of each reaction was incubated with T7E1 nuclease for 25 minutes at 37° C. […]

A short description of series [3]: in vitro. The conditions noted are these: human, THP-1 cells.
Experimental: One day before the transduction assay was performed, cells in exponential growth phase were harvested and plated in a 96-well plate (20,000 cells per well). The cells were incubated overnight in appropriate growth media containing FBS (see Example 1). The next day, in separate sterile 1.5 mL tubes, cargo protein at the indicated concentration was pre-mixed (pre-incubated) for 1 or 10 min (depending on the protocol) at 37° C. with the peptide(s) to be tested shuttle agents (0.5 to 5 μM) in 50 μL of fresh medium without serum (unless otherwise specified). The media in wells was removed and the cells were washed three times with freshly prepared phosphate buffered saline (PBS) previously warmed at 37° C. The cells were incubated with the cargo protein/shuttle agent mixture at 37° C. for the indicated time (e.g., 1, 5 or 60 min). After the incubation, the cells were quickly washed three times with freshly prepared PBS and/or heparin (0.5 mg/mL) previously warmed at 37° C. The washes with heparin were required for human THP-1 blood cells to avoid undesired cell membrane-bound protein background in subsequent analyses (microscopy and flow cytometry). The cells were finally incubated in 50 μL of fresh medium with serum at 37° C. before analysis.
One day before the transduction assay was performed, suspension cells in exponential growth phase were harvested and plated in a 96-well plate (20,000 cells per well). The cells were incubated overnight in appropriate growth media containing serum (see Example 1). The next day, in separate sterile 1.5-mL tubes, peptides were diluted in sterile distilled water at room temperature (if the cargo is or comprised a nucleic acid, nuclease-free water was used). Cargo protein(s) were then added to the peptides and, if necessary, sterile PBS or cell culture medium (serum-free) was added to obtain the desired concentrations of shuttle agent and cargo in a sufficient final volume to resuspend the cells (e.g., 10 to 100 μL per well in a 96-well plate). The shuttle agent/peptide was then immediately used for experiments. At least three controls were included for each experiment, including: (1) peptide alone (e.g., at highest concentration tested); (2) cargo alone; and (3) without any cargo or shuttle agent. The cells were centrifuged for 2 minutes at 400g, the medium was then removed and the cells were resuspended in PBS previously warmed at 37° C. The cells were centrifuged again 2 minutes at 400g, the PBS removed, and the cells were resuspended with the cargo protein/peptide mixture at 37° C. for the desired length of time. After that, 200 μL of complete medium was added directly on the cells. Cells were centrifuged for 2 minutes at 400g and the medium was removed. The pellet was resuspended and washed in 200 μL of PBS previously warmed at 37° C. After another centrifugation, the PBS was removed and the cells were resuspended in 50 μL of trypsin-EDTA solution for 2 min. 200 of complete medium was directly added and cells were centrifuged for 2 minutes at 400g. The medium was removed and the cells were resuspended in 200 μL of complete medium.
The cells incubated in 50 μL of fresh medium were directly observed by microscopy (Bright-field and fluorescence) at different power fields (4× to 40×). The cells were observed using a CoolSNAP-PRO™ camera (Series A02D874021) and images were acquired using the Image-Proplus™ software.
The fluorescence of GFP was quantified using flow cytometry (Accuri C6, Becton, Dickinson and Company (BD)).
Series [4] can be described thus: in vitro. Conditions: human, HeLa cells, Cell viability (%) (±St Dev.; n = 3).
Series [5] can be described thus: in vitro. The conditions noted are these: human, HeLa cells.
A further series relates to T cells. In kind it is cell-based, human. Here is the method:
Unless otherwise specified, T cells used herein were obtained from healthy human blood collected in heparinized tubes. T cells were isolated using a Ficoll™ technique (Ficoll-Paque™ GE or Lymphoprep™ Stem Cell Technologies). Briefly, blood was mixed with the Ficoll™ solution in conical tubes (50 mL) and centrifuged at 2280 rpm for 20 minutes. Mononuclear cells were harvested and transferred in another conical tube (50 mL) before washing with PBS and centrifugation at 1100 rpm for 10 minutes. Cells were resuspended in 5 mL of PBS containing 20% FBS. Cells were counted and then incubated in a culture medium composed by RPMI advanced (cat: 12633012 ThermoFisher), 10% FBS, 1% Penstrep (15140122 ThermoFisher), 1% L-glutamine (25030081 ThermoFisher) IL-2 30U/ml). Next, T cells were enriched with a Human T cell Enrichment Kit (StemCell #cat: 19051) by negative selection following the manufacturer instructions. The enriched T cells were validated using a specific anti-CD3 antibody (Biolegend #cat: 300438). At this step, collected cells were typically around 99% T cells. T cells were activated by adding IL-2 at 30 U/mL and the anti-CD28 antibody (ThermoFisher #cat: 16-0289-85) in complete medium for 5 days prior to experimentation. The activation of T cell expansion was then double-checked with both anti-CD25 and anti-CD137 antibodies. […]

Series [6] in a line: in vitro.
In series [7] the test system is HeLa cells. In kind it is cell-based. The conditions noted are these: peptide 5 μM; fold-increase relative to untreated calcein-loaded cells. An excerpt:
Calcein is a membrane-impermeable fluorescent molecule that is readily internalized by cells when administered to the extracellular medium. Its fluorescence is […] and calcein self-quenches at higher concentrations. Once internalized, calcein becomes sequestered at high concentrations in cell endosomes and can be visualized by fluorescence microscopy as a punctate pattern. Following endosomal leakage, calcein is released to the cell cytoplasm and this release can be visualized by fluorescence microscopy as a diffuse pattern.
The cells were allowed to attach by incubating overnight in appropriate growth media, as described in Example 1. The next day, the media in wells was removed and replaced with 50 μL of fresh media without serum containing 62.5 μg/mL (100 μM) of calcein, except for HEK293A (250 μg/mL, 400 μM). […]
Untreated calcein-loaded cells were used as a control to distinguish cells having a baseline of fluorescence due to endosomally-trapped calcein from cells having increased fluorescence due to release of calcein from endosomes. Fluorescence signal means (“mean counts”) were analyzed for endosomal escape quantification. In some cases, the “Mean Factor” was calculated, which corresponds to the fold-increase of the mean counts relative to control (untreated calcein-loaded cells). […] The cellular mortality was monitored with the percentage of cells in the total events scanned. […]

Series [8] deals with HeLa cells. In kind it is cell-based, Human. The conditions noted are these: GFP 5 μM; 5 μM of each peptide; 1 hour; data not shown.

Ends that are not written are not given here.

As for `Cn1cc(C2=C(c3ccc(Cl)cc3Cl)C(=O)NC2=O)c2ccccc21` [SB216763], in the series on HeLa cells [1], the “effect on cytotoxic activity of NK92” value was “enhances the cytotoxic activity of NK92 against HeLa cells”.

On to “FSD100 (HHHHHHFLKIWSRLIKIWTQGRRKGAQAAFRHHHHHH)”, for which the “% INDELs” value in series [2] turned out to be 16%.

For “FSD101 (HHHHHHRFAAQAGKRRGQTWIKILRSWIKLF)”, in series [2], the “% INDELs” value amounted to 17%.

For orientation: viability means a read-out of living cells in per cent, often relative to untreated cells. A high value points to better survival. In the series “in vitro [3]”, HHHHHHFLKIWSRLIKIWTQGRRKGAQAAFR [FSD21] registered a viability at 15 s, 5 µM of 62.5 ± 5.16% and a viability at 0.5 min, 2 µM of 75.6 ± 6.38%. In addition, the viability in the series “in vitro [4]” worked out at 75.6 ± 5.99%. In addition, the viability in “in vitro [5]” turned out to be 96.2 ± 1.69%. Moreover, the “viability of transduced T cells (FSC/SSC, in words)” value with T cells is “viability of the transduced T cells was not substantially affected”.

In the series “in vitro [3]”, “LLKLWSRLLKLWTQGGSGGGSGRRLKAKRAKA [FSD18]” came in with a viability at 0.5 min, 2 µM of 97.9 ± 1.73%; a viability at 1 min, 1 µM of 95.3 ± 3.11%; a viability at 1 min, 2 µM of 98.6 ± 0.37%; a viability at 0.025 h, 1 µM of 86.5 ± 6.27%. In “in vitro [4]”, the viability came out at 82.4%. For the same compound, in the series “in vitro [6]” (NK cells), the viability at 0.25 h, 5 µM was determined as 94.9 ± 1.63%; the viability at 0.5 h, 2 µM came to 98.3 ± 1%; the viability at 1.5 h, 1 µM came out at 99.1 ± 0.08%. Moreover, in the series “in vitro [6]” (human, DOHH2 cells), the viability at 0.5 h, 2 µM stood at 79.8 ± 6.18%; the viability at 0.5 h, 10 µM turned out to be 25 ± 2.66%; the viability at 1.5 h, 1 µM stood at 62.5 ± 6.17%. Also, in the series “in vitro [6]” (human, Jurkat cells), the viability at 0.5 h, 2 µM amounted to 97.4 ± 1.09%; the viability at 0.5 h, 10 µM is 96.6 ± 2.46%; the viability at 1.5 h, 1 µM is 98.6 ± 0.39%. In “in vitro [6]” (human, KMS-12BM cells), this compound registered a viability at 0.5 h, 2 µM of 95.1 ± 3.56%; a viability at 0.5 h, 10 µM of 92.7 ± 4.11%; a viability at 1.5 h, 1 µM of 97.6 ± 1.05%. In the series “in vitro [6]” (human, REC-1 cells), this compound returned a viability at 0.5 h, 2 µM of 99 ± 0.39%; a viability at 0.5 h, 10 µM of 25 ± 3.17%; a viability at 1.5 h, 1 µM of 96.2 ± 2.53%. In “in vitro [6]” (mouse, HT2 cells), the viability at 0.5 h, 2 µM was found to be 80.7 ± 7.1%; the viability at 0.5 h, 10 µM amounted to 63.9 ± 5.35%; the viability at 1.5 h, 1 µM was determined as 88.3 ± 7.91%. The “viability of transduced T cells (FSC/SSC, in words)” value with T cells is listed as “viability of the transduced T cells was not substantially affected”.

Consider “RQIKIWFQNRRMKWKKC [Penetratin-Cys, reference compound]”, for which the “Mean Factor” value in the series with HeLa cells [7] is on record as 1.1. In addition, the “GFP intracellular delivery (fluorescence microscopy)” value in the series on HeLa cells [8] was “not successfully delivered intracellularly”.

Take “YGRKKRRQRRRC [TAT-Cys, CPD single-domain peptide with C-terminal Cys, reference compound]”: in the series with HeLa cells [7], the “Mean Factor” value is 1.3. In addition, the “GFP intracellular delivery (fluorescence microscopy)” value in the series with HeLa cells [8] is reported as “not successfully delivered intracellularly”.
